Measurements reported in ChEMBL document CHEMBL1150736, “Potential inhibitors of platelet aggregation from plant sources, III” (1987).
The source made the active and inactive calls. The calls are words filed in the database; no cut-off is given here.

Assays:
Assay type in all cases: functional
[1] = tested on: Platelet; experiment: Antiplatelet activity against rat platelet rich plasma assessed as inhibition of collagen-induced platelet aggregation at 0.05 mg/ml pretreated 2 mins before collagen challenge
[2] = tested on: Platelet; experiment: Antiplatelet activity against rat platelet rich plasma assessed as inhibition of arachidonic acid-induced platelet aggregation at 0.25 mg/ml pretreated 2 mins before arachidonic acid challenge
[3] = Antiplatelet activity against rat platelet rich plasma assessed as inhibition of ADP-induced platelet aggregation pretreated 2 mins before ADP challenge
[4] = Antiplatelet activity against rat platelet rich plasma assessed as inhibition of arachidonic acid-induced platelet aggregation pretreated 2 mins before arachidonic acid challenge
[5] = Antiplatelet activity against rat platelet rich plasma assessed as inhibition of collagen-induced platelet aggregation pretreated 2 mins before collagen challenge
[6] = tested on: Platelet; experiment: Antiplatelet activity against rat platelet rich plasma assessed as inhibition of arachidonic acid-induced platelet aggregation at 0.5 mg/ml pretreated 2 mins before arachidonic acid challenge
[7] = tested on: Platelet; experiment: Antiplatelet activity against rat platelet rich plasma assessed as inhibition of ADP-induced platelet aggregation at 1 mg/ml pretreated 2 mins before ADP challenge
[8] = tested on: Platelet; experiment: Antiplatelet activity against rat platelet rich plasma assessed as inhibition of collagen-induced platelet aggregation at 0.25 mg/ml pretreated 2 mins before collagen challenge
[9] = tested on: Platelet; experiment: Antiplatelet activity against rat platelet rich plasma assessed as inhibition of arachidonic acid-induced platelet aggregation at 0.1 mg/ml pretreated 2 mins before arachidonic acid challenge
[10] = tested on: Platelet; experiment: Antiplatelet activity against rat platelet rich plasma assessed as inhibition of collagen-induced platelet aggregation at 0.1 mg/ml pretreated 2 mins before collagen challenge
[11] = tested on: Platelet; experiment: Antiplatelet activity against rat platelet rich plasma assessed as inhibition of ADP-induced platelet aggregation at 0.5 mg/ml pretreated 2 mins before ADP challenge

## CC(=O)Oc1ccccc1C(=O)O [ASPIRIN]
[1]
  Activity: inactive
[2]
  Activity: Active
[3]
  Activity: 5.6 mM
[4]
  Activity: 2.8 ×10⁻⁴ M
[5]
  Activity: 1.4 mM
[6]
  Activity: Active
[7]
  Activity: Active
[8]
  Activity: Active
[9]
  Activity: Active

## COc1cccc(OC)c1C(=O)O
[2]
  Activity: inactive
[8]
  Activity: Active

## O=C(O)c1cc(O)ccc1O
[6]
  Activity: Active
[7]
  Activity: Active
[8]
  Activity: Active

## COc1cc(CC(=O)O)ccc1O
[2]
  Activity: Active
[7]
  Activity: Active

## CCOC(=O)c1cc(O)cc(O)c1
[6]
  Activity: Active
[7]
  Activity: Active

## COC(=O)c1ccc(O)cc1O
[2]
  Activity: Active
[6]
  Activity: Active
[7]
  Activity: Active

## COc1ccc(C(=O)O)c(O)c1
[6]
  Activity: Active
[8]
  Activity: Active

## O=C(O)c1ccc(O)cc1O
[2]
  Activity: Active
[10]
  Activity: Active
[6]
  Activity: Active
[7]
  Activity: Active
[8]
  Activity: Active
[9]
  Activity: Active

## COc1cc(C(=O)O)ccc1O
[2]
  Activity: inactive
[6]
  Activity: Active
[7]
  Activity: Active
[8]
  Activity: Active

## COC(=O)c1ccc(O)c(OC)c1
[2]
  Activity: Active
[10]
  Activity: Active
[6]
  Activity: Active
[7]
  Activity: Active
[8]
  Activity: Active

## COC(=O)c1cccc(O)c1O
[2]
  Activity: Active
[6]
  Activity: Active
[7]
  Activity: Active

## O=C(O)c1cc(O)cc(O)c1
[6]
  Activity: Active
[7]
  Activity: Active
[8]
  Activity: Active

## O=C(O)c1ccc(O)c(O)c1 [PROTOCATECHUIC ACID]
[3]
  Activity: 6.5 mM
[4]
  Activity: 3.2 mM
[5]
  Activity: 1.6 mM
[6]
  Activity: Active
[7]
  Activity: Active
[8]
  Activity: Active

## COc1ccc(O)c(C(=O)O)c1
[2]
  Activity: inactive
[7]
  Activity: Active
[8]
  Activity: Active

## CCOC(=O)c1ccc(O)cc1O
[2]
  Activity: Active
[6]
  Activity: Active
[7]
  Activity: Active

## O=C(O)c1cccc(O)c1O
[2]
  Activity: Active
[6]
  Activity: Active
[7]
  Activity: Active
[8]
  Activity: Active

## CCOC(=O)c1cccc(O)c1O
[2]
  Activity: Active
[6]
  Activity: Active
[7]
  Activity: Active

## CCOC(=O)c1ccc(O)c(O)c1
[2]
  Activity: Active
[3]
  Activity: 2.7 mM
[4]
  Activity: 5.5 ×10⁻⁴ M
[5]
  Activity: 1.4 mM
[6]
  Activity: Active
[7]
  Activity: Active
[11]
  Activity: Active
[8]
  Activity: Active
[9]
  Activity: Active

## COc1ccc(C(=O)O)cc1OC
[2]
  Activity: inactive
[11]
  Activity: inactive

## COc1ccc(C(=O)O)cc1O
[2]
  Activity: inactive
[6]
  Activity: Active
[7]
  Activity: Active

## COC(=O)c1ccc(OC)c(OC)c1
[2]
  Activity: Active
[10]
  Activity: Active
[6]
  Activity: Active
[8]
  Activity: Active

## COc1ccc(C(=O)O)c(OC)c1
[6]
  Activity: Active
[7]
  Activity: Active
[8]
  Activity: Active

## CCOc1ccc(C(=O)O)cc1OCC
[2]
  Activity: inactive
[10]
  Activity: inactive
[6]
  Activity: Active
[7]
  Activity: Active
[8]
  Activity: inactive

## COC(=O)c1ccc(O)c(O)c1
[2]
  Activity: Active
[6]
  Activity: Active
[7]
  Activity: Active

## COC(=O)c1ccc(OC)cc1O
[2]
  Activity: inactive
[11]
  Activity: inactive
[8]
  Activity: Active

## COc1cc(OC)cc(C(=O)O)c1
[10]
  Activity: inactive
[11]
  Activity: inactive
[8]
  Activity: inactive

## COc1cccc(C(=O)O)c1O
[6]
  Activity: Active
[7]
  Activity: Active

## COc1cccc(C(=O)O)c1OC
[2]
  Activity: inactive
[6]
  Activity: inactive
[7]
  Activity: Active
[8]
  Activity: Active

## COC(=O)c1cc(O)cc(O)c1
[2]
  Activity: Active
[6]
  Activity: Active
[7]
  Activity: Active
[8]
  Activity: Active
[9]
  Activity: Active

## O=C(O)c1c(O)cccc1O
[6]
  Activity: Active
[8]
  Activity: Active

## COC(=O)c1cc(OC)cc(OC)c1
[6]
  Activity: Active
[8]
  Activity: Active
